# According to patent US8889731B2, “Compounds, compositions and methods for repelling blood-feeding arthropods and deterring their landing and feeding” (Contech Enterprises Inc., priority 2007, dated 2014):
# Assays:
# Format in all cases: in vivo
# Aedes aegypti = experiment: Arm-in-cage repellent/deterrent bioassay on exposed human forearm (modified WHO protocol), Aedes aegypti
# Method: (§1) Candidate repellents and deterrents were bioassayed according to a modified protocol from the World Health Organization (1996). At least 1 hour prior to each bioassay, 75 host-seeking non blood-fed, nulliparous, 5- to 8-day-old female Aedes aegypti, Anopheles gambiae or Culex quinquefasciatus were placed into a wood-framed cage (26.5 cm on each side and 42.5 cm high) with a wooden floor, screened mesh sides and top, and a clear acrylic front fitted with a cotton stockinette sleeve (10 cm diameter). The test subject's arm was covered with an elbow-length polyethylene glove with an excised patch (16.6 cm long, 6 cm wide) to expose the ventral forearm of the test subject. Candidate deterrents were formulated in mineral (paraffin) oil and applied to the exposed forearm 5 min prior to inserting the arm into the cage. The inserted arm remained in the cage for 3 min every 30 min. Prior to each 3-min bioassay period, the hand of the untreated arm was inserted into the cage to ascertain that it received 10 bites within 30 sec as an indication of “biting pressure”.
# (§2) The bioassay was terminated when the treated arm received ≧2 bites in one 3-min bioassay period or one bite in each of two consecutive bioassay periods. The time elapsed from experiment initiation to first bite was recorded as deterrent failure or complete protection time.
# (§3) N,N-diethyl-m-toluamide formulated in ethanol at a corresponding dose served as a positive control, and mineral oil by itself served as a negative control. On each day, only one candidate compound was tested, ensuring that any residual material in the chamber had disappeared before the next bioassay.
# To determine the repellence and deterrence of 8-allylsulfanyloctan-1-ol against Aedes aegypti, a 5%, 10% or 25% formulation of 8-allylsulfanyloctan-1-ol in mineral oil was applied in Experiments 1-3 at a dose of 1.5 mg (total composition) per cm^2 to the skin of the test person, and was bioassayed according to the protocol described under EXAMPLE 2. In Experiment 4, mineral oil by itself served as a negative control and was bioassayed at the same dose (1.5 mg per cm^2) as in Experiments 1-3. Each of Experiments 1-4 was replicated four times.
# To compare the repellence and deterrence against Aedes aegypti caused by 8-allylsulfanyloctan-1-ol as a single active ingredient and by 8-allylsulfanyloctan-1-ol in combination with vanillin as a second active ingredient, we tested a 6.7% emulsion of vanillin (Experiment 14), a 6.7% emulsion of 8-allylsulfanyloctan-1-ol (Experiment 15), and a 13.4% emulsion of 8-allylsulfanyloctan-1-ol plus vanillin (1:1 ratio) (Experiment 16). 8-Allylsulfanyloctan-1-ol and vanillin were formulated in Emulsion No. 1 (see EXAMPLE 9). In each of Experiments […], test stimuli were applied at a dose of 1.5 mg per cm^2 to the skin of the test person, and were bioassayed according to the protocol described under EXAMPLE 2. In Experiment 17, Emulsion No. 1 served as a positive control and was tested at the same dose (1.5 mg per cm^2) as in Experiments 14-16.
# To be able to compare the repellence and deterrence caused by N,N-diethyl-m-toluamide and by 8-allylsulfanyloctan-1-ol plus vanillin in Emulsion No. 1 (EXAMPLE 9), Experiment 26 tested a 6.7% formulation of N,N-diethyl-m-toluamide in ethanol (the best formulant for DEET) for protection from bites by Aedes egypti. In each replicate, a dose of 1.5 mg per […] was applied to the skin of the test person and bioassayed according to the protocol described under EXAMPLE 2.
# To be able to further compare the deterrence caused by N,N-diethyl-m-toluamide with that caused by 8-allylsulfanyloctan-1-ol plus vanillin, Experiment 27 tested a 10.4% formulation of N,N-diethyl-m-toluamide in ethanol, and Experiment 28 tested 8-allylsulfanyloctan-1-ol (10.4%) plus vanillin (7.9%) in Emulsion No. 2 (EXAMPLE 10). […]
# Anopheles gambiae = experiment: Arm-in-cage repellent/deterrent bioassay on exposed human forearm (modified WHO protocol), Anopheles gambiae
# Method: as §1, §2, §3
# To determine the repellence and deterrence of 8-allylsulfanyloctan-1-ol against Anopheles gambiae, a 2%, 5% or a 10% formulation of 8-allylsulfanyloctan-1-ol in mineral oil was applied in Experiments 5-7 at a dose of 1.5 mg per cm^2 to the skin of the test person, and was bioassayed according to the protocol described under EXAMPLE 2. In Experiment 8, mineral oil by itself served as a negative control and was tested at the same dose (1.5 mg per cm^2) as in Experiments 5-7. Each of Experiments 5-8 was replicated 4 times.
# To be able to compare the repellence and deterrence caused N,N-diethyl-m-toluamide (DEET), and by 8-allylsulfanyloctan-1-ol, Experiment 13 tested a 2% formulation of N,N-diethyl-m-toluamide in ethanol (the best formulant for this compound) for protection from bites by Anopheles gambiae. A dose of 1.5 mg per cm^2 was applied to the skin of the test person and bioassayed according to the protocol described under EXAMPLE 2.
# To compare the repellence and deterrence against Anopheles gambiae caused by 8-allyl-sulfanyloctan-1-ol as a single active ingredient and by 8-allylsulfanyloctan-1-ol in combination with vanillin as a second active ingredient, we tested a 6.7% emulsion of vanillin (Experiment 18), a 6.7-% emulsion of 8-allylsulfanyl-octan-1-ol (Experiment 19) and a 13.4% emulsion of 8-allylsulfanyloctan-1-ol plus vanillin (1:1 ratio) (Experiment 20). 8-Allylsulfanyloctan-1-ol and vanillin were formulated in Emulsion No. 1 (see EXAMPLE 9). In each of Experiments 18-20, test stimuli were applied at a dose of 1.5 mg per cm^2 to the skin of the test person, and were bioassayed according to the protocol described under EXAMPLE 2. In Experiment 21, Emulsion No. 1 served as a positive control and was tested at the same dose (1.5 mg per cm^2) as in experiments 18-20. Each of Experiments 18-21 was replicated three times.
# mosquitoes = experiment: General bioassay procedure with garlic oil, its components and fractions (mosquito species not given)
# Method: as §1, §2, §3
# Garlic oil (Allium sativum—Mexico; Clearwater Soap Works, Box 1775 RR1, Clearwater, BC V0E 1N0, Canada) was formulated in mineral oil and tested using the general bioassay procedure described in EXAMPLE 2 at a dose of 0.1 mg per cm^2 of arm surface. It expressed repellence and deterrence for ˜30 min.
# Some of the 10 components in FIG. 1 were bioassayed singly (see general bioassay procedure) and in various combinations, all of which were as deterrent to mosquitoes as garlic oil.
# To determine the most deterrent component(s) in garlic oil, it was fractionated by HPLC into four fractions, each containing one or more of the EAD-active components (compounds 1-10 in FIG. 1 and 11-14 in TABLE 2). Each fraction was then bioassayed and shown to be similarly effective in repelling and deterring mosquitoes.
# Components with high molecular weight (>250 daltons) are advantageous in that they: 1) dissipate slowly from treated surfaces; 2) provide long-lasting protection against mosquitoes and 3) convey little, if any, offensive smell. The relative abundance of such components was enhanced by treating garlic oil under vacuum, thus stripping away lower-boiling components. In GC-EAD analyses of the high-boiling residue, four components elicited responses from mosquito antennae.
smiles,measurement,setting,value
"C=CCSCCCCCCCCO [Compound 24, 8-allylsulfanyloctan-1-ol]","protection from bites, average duration","Aedes aegypti; 5% formulation in mineral oil, 1.5 mg per cm^2, Experiment 1",52 min
same,"protection from bites, average duration","Aedes aegypti; 6.7% single active in Emulsion No. 1, 1.5 mg per cm^2, Experiments 14, 15",77 min
same,"protection from bites, average duration","Aedes aegypti; 10% formulation in mineral oil, 1.5 mg per cm^2, Experiment 2",157 min
same,"protection from bites, average duration","Aedes aegypti; 25% formulation in mineral oil, 1.5 mg per cm^2, Experiment 3",305 min
same,"protection from bites, average duration","Anopheles gambiae; 2% formulation in mineral oil, 1.5 mg per cm^2, Experiment 5",297 min
same,"protection from bites, average duration","Anopheles gambiae; 5% formulation in mineral oil, 1.5 mg per cm^2, Experiment 6",314 min
same,"protection from bites, average duration","Anopheles gambiae; 6.7% single active in Emulsion No. 1 (FIG. 8 legend: 2.0%), 1.5 mg per cm^2, Experiments 18, 19",369 min
same,"protection from bites, average duration","Anopheles gambiae; 10% formulation in mineral oil, 1.5 mg per cm^2, Experiment 7",487 min
same,repellent and deterrent effect in bioassays (in words),mosquitoes,"very potent, even at a low dose"
